Patent US10245240B2, “Treatment of prostate carcinoma” (Pellficure Pharmaceuticals, Inc., priority 2010, dated 2019)

System: PTEN-P2/GFP prostate cancer cells
Test: Effect of naphthoquinone analogs on PTEN-P2/GFP cell proliferation (CellTiter96 formazan-based viability assay)
Conditions: for IC50 / viability at 1 µM / viability at 2 µM / viability at 3 µM / viability at 4 µM / viability at 5 µM / viability at 7 µM / viability at 10 µM / viability at 25 µM / viability at 50 µM: Mus musculus, 24 h; for % viability: 24 hrs, listed as 2,6-di-tert-butyl-1,4-naphtoquinone
[1] = 1 μM, medium with 10% FBS and DHT
[2] = 2 μM, medium with 10% FBS and DHT
[3] = 3 μM, medium with 10% FBS and DHT
[4] = 4 μM, medium with 10% FBS and DHT
[5] = 5 μM, medium with 10% FBS and DHT
[6] = 7 μM, medium with 10% FBS and DHT
[7] = 10 μM, medium with 10% FBS and DHT
[8] = 25 μM, medium with 10% FBS and DHT
[9] = 50 μM, medium with 10% FBS and DHT

Procedure: Cell culture: PTEN-P2/GFP are cells that stably express histone H2B-GFP fusion protein.
Cells are grown in DMEM medium containing 10% FBS, 2 mM L-glutamine, 100 U/ml penicillin/100 μg/ml streptomycin, insulin-selenium-transferrin (5 μg/ml insulin), and DHT 10^−8 M final. Androgen withdrawal is achieved by keeping the cells in phenol red-free DMEM medium containing 10% charcoal-treated FBS and the same supplements as in the normal medium except for DHT. Cells are maintained in a humidified incubator at 37° C. and 5% CO2. G418 (100 μg/ml) is added to maintain stable expression of H2B-GFP.
PTEN-P2/GFP prostate cancer cells were plated at a density of 8000 cells/well in 96-well plates (triplicates) in growing medium containing 10% Fetal Bovine Serum and DHT. The next day, increasing concentrations of a naphthoquinone analog (diluted from 10 mM DMSO stock solutions) were incubated for 24 hrs. Cell viability was determined by the formazan-based cytotoxicity assay “CellTiter96Aquaeous nonradioactive proliferation assay” (Promega).

Row | SMILES | IC50 [µM] | viability at 1 µM [1] [%] | viability at 2 µM [2] [%] | viability at 3 µM [3] [%] | viability at 4 µM [4] [%] | viability at 5 µM [5] [%] | viability at 7 µM [6] [%] | viability at 10 µM [7] [%] | viability at 25 µM [8] [%] | viability at 50 µM [9] [%] | other results
1 | O=C1C=CC(=O)c2ccccc21 [1,4-naphthoquinone] | 24.1 | 100 | 97 | 93.9 | 90.4 | 90.1 | 88.7 | 83 | 47.3 | 0.1 | –
2 | CC(C)(C)C1=CC(=O)c2cc(C(C)(C)C)ccc2C1=O [2,6-di-tert-butyl-1,4-naphthoquinone] | – | 104 | – | – | – | – | – | – | – | – | % viability [2]: 104.5%; % viability [3]: 104.7%; % viability [4]: 103.0%; % viability [5]: 104.0%; % viability [6]: 102.8%; % viability [7]: 102.2%; % viability [8]: 102.9%; % viability [9]: 92.9%
3 | COC1=CC(=O)c2ccccc2C1=O [2-methoxy-1,4-naphthoquinone] | 8.95 | 93.1 | 88.4 | 86.9 | 85 | 82.5 | 67.2 | 43.5 | 0.3 | – | –
4 | O=C1C(Cl)=C(Cl)C(=O)c2ccccc21 [Dichlon] | 37.8 | – | – | – | – | – | – | – | – | – | viability at 1 µM: 96.5%; viability at 2 µM: 95.6%; viability at 3 µM: 92.3%; viability at 4 µM: 92.2%; viability at 5 µM: 91.8%; viability at 7 µM: 99.3%; viability at 10 µM: 87.1%; viability at 25 µM: 89.2%; viability at 50 µM: 4.9%
5 | O=C1C=CC(=O)c2c(O)cccc21 [Juglone] | 5.3 | 90.7 | 85.1 | 80.6 | 80.5 | 58.2 | 2.3 | 1.1 | 2.5 | 5.3 | –
6 | CC(C)=CCC1=C(O)C(=O)c2ccccc2C1=O [Lapachol] | > 50 | 106 | 105 | 102 | 103 | 99.8 | 99.7 | 99.6 | 96.2 | 86.1 | –
7 | O=C1C=CC(=O)c2c(O)ccc(O)c21 [Naphthazarin] | 1.65 | – | – | – | – | – | – | – | – | – | viability at 1 µM: 73.4%; viability at 2 µM: 36.4%; viability at 3 µM: 8.9%; viability at 4 µM: 1.5%; viability at 5 µM: 1.7%; viability at 7 µM: 2.2%; viability at 10 µM: 2.4%; viability at 25 µM: 5.4%; viability at 50 µM: 9.1%

Second part, led by results:

Row | IC50 [µM] | SMILES | viability at 1 µM [1] [%] | viability at 2 µM [2] [%] | viability at 3 µM [3] [%] | viability at 4 µM [4] [%] | viability at 5 µM [5] [%] | viability at 7 µM [6] [%] | viability at 10 µM [7] [%] | viability at 25 µM [8] [%] | viability at 50 µM [9] [%] | other results
8 | 7.35 | COC1=C(OC)C(=O)c2ccccc2C1=O [DMNQ, 2,3-Dimethoxy-1,4-naphthoquinone] | 95 | 91 | 88.5 | 85.9 | 85.3 | 58.3 | 2.4 | 0.9 | 0.8 | –
9 | > 50 | O=C1C(O)=C(C2=C(O)C(=O)c3ccccc3C2=O)C(=O)c2ccccc21 [Lawsone dimer] | 98.3 | 98.6 | 97.4 | 95.1 | 96.8 | 96.1 | 98.6 | 99.4 | 97.9 | –
10 | > 50 | O=C1C=C(O)C(=O)c2ccccc21 [Lawsone] | 90.1 | 85.1 | 81.3 | 82.5 | 80.4 | 80.3 | 83.1 | 87 | 96 | –
11 | 14.5 | CC1=CC(=O)c2ccccc2C1=O [Menadione, menadione] | 95 | 93.1 | 90.2 | 93.5 | 89.4 | 94 | 77.5 | 2.4 | 2.9 | –
12 | 6.2 | O=C1C(SCCO)=C(SCCO)C(=O)c2ccccc21 [NSC 95397, 2,3-Bis[(2-hydroxyethyl)thio]-1,4-naphthoquinone] | 104 | 101 | 86.6 | 68.4 | 53.8 | 47.1 | 36.3 | 15.1 | 4.8 | –
